Test results: PubChem BioAssay (NCI)
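Cells were grown in 96-well plates and exposed to each compound for 48 hours at five concentrations; endpoints were interpolated linearly between bracketing concentrations, or set to the highest concentration if not reached. GI50 is the concentration that inhibits growth by half. TGI: total growth inhibition.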

Columns and labels:
Test in all cases: NCI anticancer screen, dose series, 48 h
[1] = system: CCRF-CEM leukemia
[2] = system: HOP-62 NSCLC
[3] = system: LOX IMVI melanoma
[4] = system: MALME-3M melanoma
[5] = system: MDA-MB-231 breast
[6] = system: MDA-MB-435
[7] = system: MOLT-4 leukemia
[8] = system: NCI/ADR-RES ovarian
[9] = system: PC-3 prostate
[10] = system: BT-549 breast

| Structure (SMILES) | GI50 [1] | TGI [1] | GI50 [2] | TGI [2] | GI50 [3] | TGI [3] | GI50 [4] | TGI [4] | GI50 [5] | TGI [5] | GI50 [6] | TGI [6] | GI50 [7] | TGI [7] | GI50 [8] | TGI [8] | GI50 [9] | TGI [9] | GI50 [10] | TGI [10] |
| --- | --- | --- | --- | --- | --- | --- | --- | --- | --- | --- | --- | --- | --- | --- | --- | --- | --- | --- | --- | --- |
| COc1ccccc1NS(=O)(=O)c1ccc2oc(SC(C)C)nc2c1 | 11.9 µM | 56.1 µM | 31.2 µM | > 100 µM | 12.7 µM | 46.4 µM | 12.9 µM | 37.5 µM | 12.4 µM | 52 µM | 18.7 µM | 94 µM | 5.23 µM | 39.7 µM | 14.8 µM | 84.1 µM | 12.4 µM | 45.7 µM | – | – |
| CC1NC(=O)C2=C1C(N)=NC(=O)C2 (stereo unspecified) | – | – | – | – | – | > 100 µM | – | > 100 µM | – | – | – | – | – | > 100 µM | – | – | – | – | – | – |
| Cc1ccc(-c2nc([P+](c3ccccc3)(c3ccccc3)c3ccccc3)c(Nc3ccccc3)o2)cc1 | 0.445 µM | 2.28 µM | – | – | 0.457 µM | 1.76 µM | 0.25 µM | 0.801 µM | 0.728 µM | 2.09 µM | 0.457 µM | 1.63 µM | 0.477 µM | 2.06 µM | 1.11 µM | 2.58 µM | 0.433 µM | 1.83 µM | 1.53 µM | 3.02 µM |
| C[C@]12CCNC(=O)C=C1CC[C@@H]1C2CC[C@@]2(C)C1CC[C@@H]2OC(=O)COc1ccc(N(CCCl)CCCl)cc1 (stereo partly specified) | – | 9.45 µM | – | 22.2 µM | – | 22.8 µM | – | 24.6 µM | – | 34.8 µM | – | 74.5 µM | – | > 22.2 µM | – | – | – | – | – | 60.2 µM |
| CCOc1ccc(O)cc1[P+](c1ccccc1)(c1ccccc1)c1ccccc1 | – | 11.2 µM | – | 28.9 µM | – | 13.6 µM | – | 20.1 µM | – | – | – | – | – | – | – | – | – | – | – | – |
| NNC(=O)c1ccc(OCc2nc3ccccc3[nH]2)cc1 | – | – | – | – | – | > 100 µM | – | > 100 µM | – | > 100 µM | – | > 100 µM | – | > 100 µM | – | > 100 µM | – | > 100 µM | – | > 100 µM |
| CSCCCNC(=O)c1csc(-c2csc(CCNC(=O)CNC(=O)CNC(=O)OC(C)(C)C)n2)n1 | – | > 100 µM | – | > 100 µM | – | > 100 µM | – | > 100 µM | – | > 100 µM | – | > 100 µM | – | > 100 µM | – | > 100 µM | – | > 100 µM | – | > 100 µM |
| C=CCOC(=O)C1CCC(=O)N1C(=O)C(Cl)Cl (stereo unspecified) | – | > 100 µM | – | > 100 µM | – | > 100 µM | – | > 100 µM | – | – | – | – | – | > 100 µM | – | – | – | – | – | – |
| O=C(OC/C=C1C=C(OC(=O)c2ccccc2)/C(=N/N(C(=O)c2ccccc2)c2ccccc2)O\1)c1ccccc1 | – | 2.1 µM | 18.8 µM | 37 µM | – | 14.1 µM | – | – | – | – | – | – | – | 14 µM | – | – | – | – | – | – |
| O=C(C/C(CCC(=O)N(Cc1ccccc1)Cc1ccccc1)=N/Nc1ccc([N+](=O)[O-])cc1[N+](=O)[O-])c1ccccc1 | – | > 100 µM | – | > 100 µM | – | > 100 µM | – | > 100 µM | – | – | – | – | – | 73.9 µM | – | – | – | – | – | – |
| NCCCCCCNCc1cccc2ccccc12 | – | – | – | > 100 µM | – | > 100 µM | – | 35.6 µM | – | – | – | – | – | > 100 µM | – | – | – | – | – | – |
| O=c1[nH]c(=O)n(C2OC(CO)C(O)C2O)cc1OCC(F)(F)F (stereo unspecified) | – | > 100 µM | – | > 100 µM | – | > 100 µM | – | > 100 µM | – | – | – | – | – | > 100 µM | – | – | – | – | – | – |
| COc1cc2c(cc1C1=NC(C)(C)CO1)OCO2 | – | > 100 µM | – | > 100 µM | – | – | – | > 100 µM | – | – | – | – | – | > 100 µM | – | – | – | – | – | – |
| CCOC(=O)/C(=C/c1ccc(N(CCC#N)CCC#N)cc1C)NC(=O)/C=C/c1ccccc1 | – | > 100 µM | – | > 100 µM | – | > 100 µM | – | > 100 µM | – | – | – | – | – | > 100 µM | – | – | – | – | – | – |
| O=C1C2C3C=C4c5ccccc5N(c5ccccc5)C4(C2C(=O)N1c1ccc(Br)cc1)[C@H]1C(=O)N(c2ccc(Br)cc2)C(=O)[C@@H]31 (stereo partly specified) | – | > 100 µM | – | > 100 µM | – | > 100 µM | – | > 100 µM | – | – | – | – | – | > 100 µM | – | – | – | – | – | – |
| N#Cc1c(N)nc(NCc2ccccc2)c(C#N)c1-c1ccc(Cl)cc1Cl | 10.2 µM | 28.6 µM | > 51.9 µM | > 85.9 µM | > 100 µM | > 100 µM | > 63.1 µM | > 100 µM | > 100 µM | > 100 µM | > 46.8 µM | > 100 µM | 34.6 µM | > 100 µM | > 68.1 µM | > 100 µM | 55.7 µM | > 100 µM | – | – |
| CNS(=O)(=O)OCC1OC(n2cnc3c(N)ncnc32)C(O)C1O (stereo unspecified) | > 100 µM | > 100 µM | > 100 µM | > 100 µM | > 100 µM | > 100 µM | > 100 µM | > 100 µM | > 100 µM | > 100 µM | > 100 µM | > 100 µM | – | – | > 100 µM | > 100 µM | > 100 µM | > 100 µM | > 100 µM | > 100 µM |
| COC(=O)/C=c1\s/c(=C\C(=O)OC)c2ccccc12 | – | > 100 µM | – | – | – | > 100 µM | – | > 100 µM | – | – | – | – | – | > 100 µM | – | – | – | – | – | – |
| COC1C2c3cc4c(cc3CC(C#N)(c3ccccc32)N1C(=O)c1ccccc1)OCO4 (stereo unspecified) | – | > 100 µM | – | > 100 µM | – | > 100 µM | – | > 100 µM | – | – | – | – | – | > 100 µM | – | – | – | – | – | – |
| CCN1C[C@]2(COC)[C@H](O)C[C@H](OC)[C@]34C1[C@H]([C@H](OC)[C@H]23)[C@]1(OC(C)=O)[C@H]2[C@@H](OC(=O)c3ccccc3)[C@](O)(C[C@H]24)[C@@H](OC)[C@@H]1O | – | > 100 µM | – | – | – | > 100 µM | – | > 100 µM | – | > 100 µM | – | > 100 µM | – | – | – | > 100 µM | – | > 100 µM | – | > 100 µM |
| COc1ccc(Nc2nc3cc(N)cc(N)c3nc2-c2ccccc2)cc1OC | – | – | 34.8 µM | > 100 µM | 25.8 µM | 72.2 µM | 15.7 µM | 35.7 µM | 4.92 µM | 18.5 µM | 16.3 µM | 32.1 µM | 6.91 µM | > 100 µM | 17.2 µM | 42.7 µM | 14 µM | 36 µM | 25.9 µM | 81.6 µM |
| CCCCCCCC(=O)OCC(=O)[C@]1(O)Cc2c(O)c3c(c(O)c2[C@@H](OC2CC(N)C(O)C(C)O2)C1)C(=O)c1c(OC)cccc1C3=O (stereo partly specified) | – | – | 0.162 µM | 1.74 µM | – | – | – | – | 0.578 µM | 2.17 µM | 0.325 µM | 1.88 µM | – | – | 1.67 µM | 4.41 µM | – | – | – | – |
